Tests used:
in vitro = format: cell-based, human; settings: human, differentiated hl-60 cells, 300 μmol/L, about 24 hours, PMA-differentiated HL-60 cells, LDH; no-treatment 0%, cell lysis buffer 100%; read-out: cytotoxicity (%) Evaluation compound results
Method in brief: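 HL-60 cells differentiated ~72 h with 10 nM PMA, then exposed ~24 h to compound at 300 μmol/L final in RPMI with 2% FBS. LDH release in supernatant gave cytotoxicity % scaled between untreated (0%) and lysis-buffer (100%) groups; triplicate.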

[1] = Study for confirmation of conversion to brexpiprazole in a buffer (stability of the evaluation compounds); format: physicochemical; settings: in buffer, average of duplicate; for Concentration of brexpiprazole formed: 60-minute reaction sample; for Concentration of evaluation compound decreased: decrease in 60-minute vs 0-minute reaction sample
Method in brief: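 Compounds (final 1 μmol/L, from 100 μmol/L working solutions) incubated in buffer at 37° C. for 0 or 60 min, in duplicate, after 3 min pre-incubation of the reaction solution. Reactions stopped with acetonitrile/isopropanol (4:1) containing internal standards; compound and formed brexpiprazole quantified against 0.01–1 μmol/L calibration samples.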

| SMILES | Concentration of brexpiprazole formed [1] [nM] | Concentration of evaluation compound decreased [1] [nM] | cytotoxicity at 24 h, 300 µM (in vitro) [%] |
| --- | --- | --- | --- |
| O=C(CCCCCO)OCOP(=O)([O-])OC[N+]1(CCCCOc2ccc3ccc(=O)[nH]c3c2)CCN(c2cccc3sccc23)CC1 [EX 126, (4-(benzo[b]thiophen-4-yl)-1-(4-((2-oxo-1,2-dihydroquinolin-7-yl)oxy)butyl)piperazin-1-ium-1-yl)methyl (6-hydroxyhexanoyl)oxy)methyl) phosphate] | 0 | 160 | -7 |
| O=C(OCOP(=O)([O-])OC[N+]1(CCCCOc2ccc3ccc(=O)[nH]c3c2)CCN(c2cccc3sccc23)CC1)C1CCOCC1 [EX 127, (4-(benzo[b]thiophen-4-yl)-1-(4-((2-oxo-1,2-dihydroquinolin-7-yl)oxy)butyl)piperazin-1-ium-1-yl)methyl (((tetrahydro-2H-pyran-4-carbonyl)oxy)methyl) phosphate] | 0 | 40 | 0 |
| CC(C)(C)OC(=O)NC(C)(C)C(=O)OCOP(=O)([O-])OC[N+]1(CCCCOc2ccc3ccc(=O)[nH]c3c2)CCN(c2cccc3sccc23)CC1 [EX 128, (4-(benzo[b]thiophen-4-yl)-1-(4-((2-oxo-1,2-dihydroquinolin-7-yl)oxy)butyl)piperazin-1-ium-1-yl)methyl (((2-(tert-butoxycarbonyl)amino)-2-methylpropanoyl)oxy)methyl) phosphate] | 0 | -30 | 2 |
| CCOC(=O)OCOP(=O)([O-])OC[N+]1(CCCCOc2ccc3ccc(=O)[nH]c3c2)CCN(c2cccc3sccc23)CC1 [EX 129, (4-(benzo[b]thiophen-4-yl)-1-(4-(((2-oxo-1,2-dihydroquinolin-7-yl)oxy)butyl)piperazin-1-ium-1-yl)methyl (((ethoxycarbonyl)oxy)methyl) phosphate] | 0 | 90 | -4 |
| CC(C)OC(=O)OCOP(=O)([O-])OC[N+]1(CCCCOc2ccc3ccc(=O)[nH]c3c2)CCN(c2cccc3sccc23)CC1 [EX 130, (4-(benzo[b]thiophen-4-yl)-1-(4-((2-oxo-1,2-dihydroquinolin-7-yl)oxy)butyl)piperazin-1-ium-1-yl)methyl (isopropoxycarbonyl)oxy)methyl) phosphate] | 0 | -20 | 1 |
| O=C(OCCCOC1CCCCO1)OCOP(=O)([O-])OC[N+]1(CCCCOc2ccc3ccc(=O)[nH]c3c2)CCN(c2cccc3sccc23)CC1 (stereo not drawn) [EX 140, (4-(benzo[b]thiophen-4-yl)-1-(4-((2-oxo-1,2-dihydroquinolin-7-yl)oxy)butyl)piperazin-1-ium-1-yl)methyl ((((3-((tetrahydro-2H-pyran-2-yl)oxy)propoxy)carbonyl)oxy)methyl) phosphate] | 0 | -20 | 9 |

Continued, in another order:

| Concentration of brexpiprazole formed [1] [nM] | Concentration of evaluation compound decreased [1] [nM] | SMILES | cytotoxicity at 24 h, 300 µM (in vitro) [%] |
| --- | --- | --- | --- |
| 0 | 130 | CCOCCOC(=O)OCOP(=O)([O-])OC[N+]1(CCCCOc2ccc3ccc(=O)[nH]c3c2)CCN(c2cccc3sccc23)CC1 [EX 132, (4-(benzo[b]thiophen-4-yl)-1-(4-((2-oxo-1,2-dihydroquinolin-7-yl)oxy)butyl)piperazin-1-ium-1-yl)methyl ((((2-ethoxyethoxy)carbonyl)oxy)methyl) phosphate] | -7 |
| 0 | 140 | CC(C)OCCOC(=O)OCOP(=O)([O-])OC[N+]1(CCCCOc2ccc3ccc(=O)[nH]c3c2)CCN(c2cccc3sccc23)CC1 [EX 133, (4-(benzo[b]thiophen-4-yl)-1-(4-((2-oxo-1,2-dihydroquinolin-7-yl)oxy)butyl)piperazin-1-ium-1-yl)methyl ((((2-isopropoxyethyloxy)carbonyl)oxy)methyl) phosphate] | -5 |
| 0 | 70 | CCOCCOCCOC(=O)OCOP(=O)([O-])OC[N+]1(CCCCOc2ccc3ccc(=O)[nH]c3c2)CCN(c2cccc3sccc23)CC1 [EX 134, (4-(benzo[b]thiophen-4-yl)-1-(4-((2-oxo-1,2-dihydroquinolin-7-yl)oxy)butyl)piperazin-1-ium-1-yl)methyl (3-oxo-2,4,7,10-tetraoxadodecyl) phosphate] | -7 |
| 0 | 70 | CCCCOCCOCCOC(=O)OCOP(=O)([O-])OC[N+]1(CCCCOc2ccc3ccc(=O)[nH]c3c2)CCN(c2cccc3sccc23)CC1 [EX 135, (4-(benzo[b]thiophen-4-yl)-1-(4-((2-oxo-1.2-dihydroquinolin-7-yl)oxy)butyl)piperazin-1-ium-1-yl)methyl (3-oxo-2,4,7,10-tetraoxatetradecyl) phosphate] | -4 |
| 0 | 0 | CCOCCOCCOCCOC(=O)OCOP(=O)([O-])OC[N+]1(CCCCOc2ccc3ccc(=O)[nH]c3c2)CCN(c2cccc3sccc23)CC1 [EX 136, (4-(benzo[b]thiophen-4-yl)-1-(4-((2-oxo-1,2-dihydroquinolin-7-yl)oxy)butyl)piperazin-1-ium-1-yl)methyl (3-oxo-2,4,7,10,13-pentaoxapentadecyl) phosphate] | -9 |
| 0 | 90 | CC(C)OCCOCCOCCOC(=O)OCOP(=O)([O-])OC[N+]1(CCCCOc2ccc3ccc(=O)[nH]c3c2)CCN(c2cccc3sccc23)CC1 [EX 137, (4-(benzo[b]thiophen-4-yl)-1-(4-((2-oxo-1,2-dihydroquinolin-7-yl)oxy)butyl)piperazin-1-ium-1-yl)methyl (14-methyl-3-oxo-2,4,7,10,13-pentaoxapentadecyl) phosphate] | -8 |
| 0 | 90 | CCCCOCCOCCOCCOC(=O)OCOP(=O)([O-])OC[N+]1(CCCCOc2ccc3ccc(=O)[nH]c3c2)CCN(c2cccc3sccc23)CC1 [EX 138, (4-(benzo[b]thiophen-4-yl)-1-(4-((2-oxo-1,2-dihydroquinolin-7-yl)oxy)butyl)piperazin-1-ium-1-yl)methyl (3-oxo-2,4,7,10,13-pentaoxaheptadecyl) phosphate] | -7 |
| 0 | 120 | COCCCOC(=O)OCOP(=O)([O-])OC[N+]1(CCCCOc2ccc3ccc(=O)[nH]c3c2)CCN(c2cccc3sccc23)CC1 [EX 139, (4-(benzo[b]thiophen-4-yl)-1-(4-((2-oxo-1,2-dihydroquinolin-7-yl)oxy)butyl)piperazin-1-ium-1-yl)methyl ((((3-methoxypropoxy)carbonyl)oxy)methyl) phosphate] | -4 |
